Experimental data reported in US8802433B2, “Macrophage phagocytosis-activating composition and/or composition promoting cytokine production in macrophages” (Aureo Co., Ltd., priority 2009, dated 2014).

What was measured:
[1] = test system: THP-1 cells differentiated into macrophage-like cells; experiment: Ability of macrophage-like cells to phagocytose polystyrene beads; type: cell-based, human; settings: 500-fold vs 1000-fold dilution; 1 μM vs 10 μM
Description: THP-1 cells (refer to FIG. 1 (A)) were seeded in a 24-well plate (Becton Dickinson Labware, Franklin Lakes, N.J.) at 2×10^5 cells/mL per well, and phorbol 12-myristate 13-acetate (PMA) (Wako) was added to each well so as to have a final concentration of 160 nM, and incubated at 37° C. under 5% CO2 for 72 hours, to give macrophage-like cells (refer to FIG. 1 (B)). After incubation, the cells were washed twice with sterilized PBS in order to remove undifferentiated THP-1 cells, and a fresh medium was added thereto, and the mixture was subjected to an experiment. The THP-1 cells differentiated into macrophage-like cells were prepared in a 24-well plate by the method of Test Example 1. Thereto were each added 500-fold and 1000-fold dilutions as final concentration of an Aureobasidium culture fluid, and the mixture was incubated for 4 hours. […] Thereafter, beads with a diameter of 10 μm were added to each well at a final concentration of 2 μL/mL (Trade name “Polybeads dyed violet” manufactured by Polysciences, Inc.), and the mixture was incubated for 3 hours to allow phagocytosis of the beads by the cells. After the incubation, each well was washed 3 times with sterilized PBS in order to remove beads that were not phagocyted. […] The number of beads phagocyted by the macrophage-like cells was measured with a phase contrast microscope. […]

macrophage-like cells = experiment: TNF-α secretion from macrophage-like cells (ELISA); type: cell-based, human; settings: added independently or in combination; ELISA of culture fluid
From the text: Since the increase in phagocytosis of macrophage-like cells by the Aureobasidium culture fluid or Compound 1 was inferred to be the result of activity induction in the macrophage-like cells, it was attempted to see if it is true. Specifically, regarding TNF-α, a type of cytokines released by activity induction, how much this substance was secreted into a culture fluid of the macrophage-like cells to which the Aureobasidium culture fluid, Compound 1, or the Aureobasidium culture fluid plus Compound 1 was added was measured by ELISA according to an ordinary method.

[2] = test system: THP-1 cells differentiated into macrophage-like cells; experiment: Cytokine gene expression in macrophage-like cells (RT-PCR, agarose gel electrophoresis); type: cell-based, human; settings: 7 hours, compared to group a (control)
Description: Regarding TNF-α, IL-6, IL-12B, and IL-18, cytokines released when macrophage-like cells underwent activity induction, how much mRNA for these substances expressed in the macrophage-like cells to which the Aureobasidium culture fluid, Compound 1, or the Aureobasidium culture fluid plus Compound 1 was added was measured by RT-PCR according to an ordinary method. Specifically, first, the THP-1 cells differentiated into macrophage-like cells by the method of Test Example 1 were washed twice with PBS to remove undifferentiated THP-1 cells, and then divided into 9 groups, group a, group b, group c, group d, group e, group f, group g, group h, and group i. Subsequently, the Aureobasidium culture fluid and/or Compound 1 was added to each group so as to have the final concentrations as follows, and the mixture was incubated for 7 hours. Next, each group was washed with PBS, thereafter, 1 mL of Trizol (Invitrogen) was added to each, and the mixture was well suspended and left at room temperature for 5 minutes. […] After left at room temperature for 2 minutes, the mixture was centrifuged at 12000×g at 4° C. for 10 minutes. After centrifugation, 400 μL of the upper layer was collected and transferred to a new Eppendorf tube for 1.5 mL, and 500 μL of 2-propanol (Wako) was added and stirred, and then left at room temperature for 5 minutes. […] Thereafter, the mixture was centrifuged at 12000×g at 4° C. for 10 minutes. After centrifugation, the upper layer was discarded, 75% ethanol was added to the precipitate, and the mixture was centrifuged at 12000×g at 4° C. for 10 minutes. After centrifugation, the upper layer was discarded, and the resultant was suspended in 20 μL of milliQ water, thereby collecting the total mRNA. Subsequently, using the total mRNA of each group as a template, RT-PCR was performed using TaKaRa RNA PCR Kit (AMV) Ver 3.0 (TaKaRa), to prepare a template cDNA of each sample. The RT-PCR reaction solution composition and RT-PCR reaction conditions are as described below. […] RT reaction conditions: after reaction at 42° C. for 30 minutes, respective reactions at 95° C. for 5 minutes and 5° C. for 5 minutes were performed for 1 cycle using a thermal cycler (Bio Flux). Subsequently, PCR was performed using the template cDNA of each group as a template, to amplify each cDNA of TNF-α, IL-6, IL-12B, IL-18, and glyceraldehyde-3-phosphate dehydrogenase (GAPDH). Primers, the PCR reaction solution composition, and PCR reaction conditions are as described below. PCR reaction solution composition: 5×PCR buffer 10 μL, milliQ 28.75 μL, Ex Taq 0.25 μL, sense primer 0.5 μL, antisense primer 0.5 μL, whole amount of template cDNA of each sample. PCR reaction conditions: after reaction at 94° C. for 2 minutes, with respective reactions at 94° C. for 30 seconds, 60° C. for 30 seconds, and 72° C. for 1 minute as 1 cycle, 35 cycles were performed. Thereafter, the amount of PCR reaction product was confirmed by performing agarose gel electrophoresis according to the conventional method, whereby the expression levels of mRNA for TNF-α, IL-6, IL-12B, IL-18, and glyceraldehyde-3-phosphate dehydrogenase (GAPDH) were confirmed.

in vitro = type: cell-based; settings: human
Description: In the following Test Examples, the human monocytic leukemia cell line THP-1 or human leukemia T cell line, Jurkat cell line was incubated at 37° C. under 5% CO2 for culture in the RPMI 1640 medium (containing 10% fetal bovine serum (FBS), 75 mg/L kanamycin, and 3.5 μL/L 2-mercaptoethanol).
In order to study the cytotoxicity of 5-FU on Jurkat cells, 5-FU was studied by MTT method. Jurkat cells prepared as 2.0×10^5 cells/mL were placed in a 96-well plate (Corning). 5-FU was added thereto so as to have final concentrations of 0, 10, 100, and 1000 μM, and the cells were then exposed thereto in a CO2 incubator at 37° C. for 24 hours. At the time point of the exposure over 23 hours, 10 μL of 3-[4,5-dimethylthiazol-2-yl]-2,5-diphenyltet-razolium bromide (MTT solution) (Wako) was added to each well, and the cells were then exposed thereto at 37° C. for 1 hour. After the exposure, the mixture was centrifuged at 1200 rpm for 5 minutes, the supernatant was discarded, 100 μL per well of DMSO was added, and the mixture was measured for absorbance at 570 nm using a microplate reader. […] Therefore, DMSO was added to dissolve the formazan precipitate, and the absorbance of the solution was measured at 570 nm. When the cells are alive, formazan is produced, and thus the solution can be measured at 570 nm.

Jurkat cells = experiment: Exposure of phosphatidylserine in apoptotic Jurkat cells (Annexin V / propidium iodide, flow cytometry); type: cell-based, human; settings: Jurkat cells exposed to 250 μM 5-FU (250 μM or 500 μM tested), 24 hours
Description: Whether the cytotoxicity of 5-FU on Jurkat cells was caused by apoptosis was studied. In early apoptosis, phosphatidylserine (PS) localized on the inside of cell membrane exposes to the outside. PS is a molecule also relating to the recognition and phagocytosis of apoptotic cells by macrophages. The PS exposure is measured, whereby induction of early apoptosis can be confirmed. In late apoptosis, the cell membrane breaks, and the internal components leak out thereof. Therefore, the cells are combined with propidium iodide (PI) which is a membrane impermeable fluorescent dye, whereby the late apoptotic cells and early apoptotic cells can be clearly separated (refer to FIG. 3).

| IC50 at 24 h (in vitro) [µM] | Structure (SMILES) | working concentration giving higher phagocytosis of polystyrene beads [1] | TNF-α secreted as compared to the case of adding nothing (macrophage-like cells) | expression level of mRNA for IL-12B ([2]; group b: Compound 1 1 μM) | expression level of mRNA for IL-18 ([2]; group b: Compound 1 1 μM) | expression level of mRNA for TNF-α ([2]; group b: Compound 1 1 μM) | expression level of mRNA for IL-6 ([2]; group c: Compound 1 10 μM) | expression level of mRNA for IL-12B ([2]; group c: Compound 1 10 μM) | expression level of mRNA for IL-18 ([2]; group c: Compound 1 10 μM) | PS exposure (early apoptosis) (Jurkat cells) |
| --- | --- | --- | --- | --- | --- | --- | --- | --- | --- | --- |
| – | CCOCc1nc2c(N)nc3ccccc3c2n1CC(C)(C)O [Compound 1, 4-Amino-2-(ethoxymethyl)-a,a-dimethyl-1H-imidazo[4,5-c]quinoline-1-ethanol] | higher for 1 μM | larger amount | increased | increased | increased | increased | increased | increased | – |
| 450 | O=c1[nH]cc(F)c(=O)[nH]1 [Compound 5-FU, 5-fluorouracil] | – | – | – | – | – | – | – | – | much PS exposure |
